We go through 19 molecules from ChEMBL document CHEMBL4382229, “Benzofuran derivatives and their anti-tubercular, anti-bacterial activities” (Eur J Med Chem, 2019).

One assay relates to Bacillus spizizenii. Briefly: Antibacterial activity against Bacillus subtilis ATCC 6633 after 24 hrs by broth dilution method. It is filed as functional. The note with it: ATCC 6633, 24 h.
The test system of assay [1] is Staphylococcus aureus. In words: Antibacterial activity against Staphylococcus aureus ATCC 29213 after 24 hrs by broth dilution method. It is filed as functional. The note with it: ATCC 29213, 24 h.
Assay [2] has as its system Escherichia coli. Briefly: Antibacterial activity against Escherichia coli ATCC 11229 after 24 hrs by broth dilution method. It is filed as functional. The following applies: ATCC 11229, 24 h. On the technique in general: Dilution methods test growth across graded concentrations, often in twofold steps.
The test system of assay [3] is Proteus vulgaris. In words: Antibacterial activity against Proteus vulgaris […] after 24 hrs by broth dilution method. It is filed as functional.
The subject of assay [4] is Escherichia coli. In words: Antibacterial activity against Escherichia coli by broth dilution method. It is filed as functional.
Assay [5] relates to Pseudomonas aeruginosa. Briefly: Antibacterial activity against Pseudomonas aeruginosa by broth dilution method. It is filed as functional.
Assay [6] addresses DNA gyrase subunit A/DNA gyrase subunit B (Mycobacterium tuberculosis (strain ATCC 25618 / H37Rv), UniProt P9WG45+P9WG47). Briefly: Inhibition of Mycobacterium tuberculosis H37Rv DNA gyrase A/B expressed in Escherichia coli assessed as reduction in supercoiling of relaxed pBR322 DNA substrate measured after 60 mins by ethidium bromide staining based agarose gel electrophoresis method.

Assay [7] concerns Staphylococcus aureus. In words: Antibacterial activity against Staphylococcus aureus MTCC 96 assessed as zone of inhibition at 100 ug/ml by disc diffusion method. It is filed as functional. The note with it: read-out: IZ. A general note: In agar diffusion tests the substance spreads into inoculated agar from a disc or well.
Assay [8] has as its system Streptococcus pyogenes. In words: Antibacterial activity against Streptococcus pyogenes MTCC 442 assessed as zone of inhibition at 100 ug/ml by disc diffusion method. It is filed as functional. The note with it: read-out: IZ.
Assay [9] concerns Escherichia coli. Briefly: Antibacterial activity against Escherichia coli MTCC 443 assessed as zone of inhibition at 100 ug/ml by disc diffusion method. It is filed as functional. The following applies: read-out: IZ.
Assay [10] has as its system Pseudomonas aeruginosa. Briefly: Antibacterial activity against Pseudomonas aeruginosa MTCC 424 assessed as zone of inhibition at 100 ug/ml by disc diffusion method. It is filed as functional. The note with it: read-out: IZ.
Assay [11] concerns Proteus vulgaris. In words: Antibacterial activity against Proteus vulgaris after 24 hrs. It is filed as functional.
Assay [12] concerns Staphylococcus aureus. Briefly: Antibacterial activity against Staphylococcus aureus MTCC 96 assessed as zone of inhibition at 25 ug/ml by agar well diffusion method. It is filed as functional. The following applies: read-out: IZ.
Assay [13] relates to Streptococcus pyogenes. Briefly: Antibacterial activity against Streptococcus pyogenes MTCC 442 assessed as zone of inhibition at 25 ug/ml by agar well diffusion method. It is filed as functional. The note with it: read-out: IZ.
The subject of assay [14] is Escherichia coli. In words: Antibacterial activity against Escherichia coli MTCC 443 assessed as zone of inhibition at 25 ug/ml by agar well diffusion method. The note with it: read-out: IZ. It is filed as functional.
Assay [15] relates to Pseudomonas aeruginosa. Briefly: Antibacterial activity against Pseudomonas aeruginosa MTCC 424 assessed as zone of inhibition at 25 ug/ml by agar well diffusion method. It is filed as functional. The following applies: read-out: IZ.
The test system of assay [16] is Escherichia coli. Briefly: Antibacterial activity against Escherichia coli assessed as zone of inhibition at 50 ug/ml after 3 days by filter paper disc method. It is filed as functional. The note with it: 72 h, read-out: IZ.
The subject of assay [17] is Pseudomonas aeruginosa. In words: Antibacterial activity against Pseudomonas aeruginosa assessed as zone of inhibition at 50 ug/ml after 3 days by filter paper disc method. It is filed as functional. The note with it: 72 h, read-out: IZ.
Assay [18] has as its system Staphylococcus aureus. In words: Antibacterial activity against Staphylococcus aureus assessed as zone of inhibition at 1 mg/ml after 32 hrs by agar-well diffusion method. It is filed as functional. The following applies: read-out: IZ.
The subject of another assay is Klebsiella pneumoniae. In words: Antibacterial activity against Klebsiella pneumoniae assessed as zone of inhibition at 1 mg/ml after 32 hrs by agar-well diffusion method. It is filed as functional. The following applies: read-out: IZ.
Assay [19] deals with Pseudomonas aeruginosa. Briefly: Antibacterial activity against Pseudomonas aeruginosa assessed as zone of inhibition at 1 mg/ml after 32 hrs by agar-well diffusion method. It is filed as functional. The following applies: read-out: IZ.
Assay [20] has as its system Escherichia coli. In words: Antibacterial activity against Escherichia coli assessed as zone of inhibition at 1 mg/ml after 32 hrs by agar-well diffusion method. It is filed as functional. The note with it: read-out: IZ.
In assay [21] the test system is Mycobacterium tuberculosis. Briefly: Antimycobacterial activity against Mycobacterium tuberculosis H37Rv ATCC 27294 after 5 days by microplate alamar blue assay. It is filed as functional. The following applies: H37Rv ATCC 27294, 120 h. A general note: Alamar Blue is a resazurin reagent that responds to reducing activity.
Another assay relates to Bacillus subtilis. In words: Antibacterial activity against Bacillus subtilis MTCC 1134 after 24 hrs by broth dilution method. It is filed as functional. The following applies: MTCC 1134, 24 h.
Assay [22] has as its system Escherichia coli. Briefly: Antibacterial activity against Escherichia coli MTCC 1559 after 24 hrs by broth dilution method. It is filed as functional. The following applies: MTCC 1559, 24 h.
The subject of assay [23] is Pseudomonas aeruginosa. In words: Antibacterial activity against Pseudomonas aeruginosa MTCC 1034 after 24 hrs by broth dilution method. It is filed as functional. The note with it: MTCC 1034, 24 h.

In brackets after ≈: the same amount, converted by molar mass.

As a reminder, the MIC is the lowest concentration that inhibits growth of the organism. A word on the IC50: it is the concentration at which inhibition is half-maximal.

Sequence of DNA gyrase subunit A/DNA gyrase subunit B (P9WG45 whole entry): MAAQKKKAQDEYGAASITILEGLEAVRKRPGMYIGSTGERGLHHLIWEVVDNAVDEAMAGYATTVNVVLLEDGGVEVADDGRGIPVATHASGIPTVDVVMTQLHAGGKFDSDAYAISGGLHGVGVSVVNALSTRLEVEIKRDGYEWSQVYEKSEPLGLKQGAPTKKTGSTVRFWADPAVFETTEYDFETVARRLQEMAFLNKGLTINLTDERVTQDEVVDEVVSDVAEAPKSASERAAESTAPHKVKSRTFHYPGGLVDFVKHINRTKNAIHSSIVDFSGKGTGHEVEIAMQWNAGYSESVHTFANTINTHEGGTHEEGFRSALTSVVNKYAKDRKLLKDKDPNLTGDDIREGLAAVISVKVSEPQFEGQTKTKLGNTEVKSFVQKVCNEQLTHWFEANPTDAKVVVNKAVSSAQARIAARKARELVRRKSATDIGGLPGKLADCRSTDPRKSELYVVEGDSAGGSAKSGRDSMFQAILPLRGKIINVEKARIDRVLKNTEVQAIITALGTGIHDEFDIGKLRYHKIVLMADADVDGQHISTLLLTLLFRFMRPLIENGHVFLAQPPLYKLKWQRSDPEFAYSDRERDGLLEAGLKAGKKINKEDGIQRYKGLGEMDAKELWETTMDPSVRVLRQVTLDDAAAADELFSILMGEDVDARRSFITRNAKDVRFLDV
Sequence of DNA gyrase subunit A/DNA gyrase subunit B (P9WG47 whole entry): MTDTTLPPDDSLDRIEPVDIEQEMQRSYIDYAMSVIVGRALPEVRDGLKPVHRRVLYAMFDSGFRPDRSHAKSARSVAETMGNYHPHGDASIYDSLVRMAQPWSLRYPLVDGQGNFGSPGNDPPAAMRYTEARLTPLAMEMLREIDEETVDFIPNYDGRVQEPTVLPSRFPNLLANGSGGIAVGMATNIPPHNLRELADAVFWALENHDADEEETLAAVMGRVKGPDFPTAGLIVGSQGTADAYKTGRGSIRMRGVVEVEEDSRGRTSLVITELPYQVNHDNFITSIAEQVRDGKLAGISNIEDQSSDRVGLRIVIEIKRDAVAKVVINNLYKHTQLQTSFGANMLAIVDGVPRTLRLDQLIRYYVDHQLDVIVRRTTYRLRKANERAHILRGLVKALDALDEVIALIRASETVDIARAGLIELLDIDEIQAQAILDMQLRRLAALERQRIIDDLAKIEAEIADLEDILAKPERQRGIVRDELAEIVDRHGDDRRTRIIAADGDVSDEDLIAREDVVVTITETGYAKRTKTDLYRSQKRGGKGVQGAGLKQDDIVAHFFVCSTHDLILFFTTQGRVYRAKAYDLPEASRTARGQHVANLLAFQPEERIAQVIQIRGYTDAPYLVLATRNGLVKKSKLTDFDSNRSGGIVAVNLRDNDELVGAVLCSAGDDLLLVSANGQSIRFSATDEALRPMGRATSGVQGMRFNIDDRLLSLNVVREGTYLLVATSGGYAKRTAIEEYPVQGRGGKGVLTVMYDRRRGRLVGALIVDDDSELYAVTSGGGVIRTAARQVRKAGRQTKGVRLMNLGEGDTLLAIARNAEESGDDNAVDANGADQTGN

Turning to `COc1ccc(-c2nn(-c3ccccc3)cc2/C=C/c2oc3c4c(ccc3c2C(=O)c2ccc(Br)cc2)OCC=C4)cc1OC`, the MIC against Bacillus spizizenii, with Staphylococcus aureus [1], in the assay on Escherichia coli [2] and against Proteus vulgaris [3] was 1.6 to 3.1 µg/mL (≈ 2.43 to 4.7 µM) each time.
With `COc1ccc2occ(-c3cc4ccccc4oc3=O)c2c1`, the MIC against Escherichia coli [4] and against Pseudomonas aeruginosa [5] was 6.25 to 100 µg/mL (≈ 21.4 to 342 µM) in each case.
Consider `O=c1oc2ccc(Br)cc2cc1-c1coc2c1ccc1ccccc12`, for which the MIC in the assay on Escherichia coli [4] and in the assay with Pseudomonas aeruginosa [5] was 6.25 to 100 µg/mL (≈ 16 to 256 µM) throughout.
In the case of `O=C(N/N=C1\C(=O)N(c2ccccc2)c2ccccc21)c1cc2ccccc2o1`, the IC50 in assay [6] is 50 to 200 µM.
In the case of `Cc1ccc(S(=O)(=O)Nc2cc(C)cc3cc(COC(=O)NCc4ccccc4)oc23)cc1`, the zone of inhibition at 100 µg/mL with Staphylococcus aureus [7], in the assay on Streptococcus pyogenes [8], in the assay on Escherichia coli [9] and in the assay on Pseudomonas aeruginosa [10] was 11 to 28 mm throughout.
On to `COc1ccc(S(=O)(=O)Nc2cc(C)cc3cc(COC(=O)NCc4ccccc4)oc23)cc1`, for which the zone of inhibition at 100 µg/mL in the assay on Staphylococcus aureus [7], in the assay with Streptococcus pyogenes [8], in the assay with Escherichia coli [9] and with Pseudomonas aeruginosa [10] was 19 to 28 mm throughout.
Turning to `CCn1cc(C(=O)O)c(=O)c2cc(F)c(N3CCNCC3)cc21` [NORFLOXACIN], in the assay with Proteus vulgaris [11], it took 62.5 µg/mL (≈ 196 µM) to inhibit growth (MIC). Besides, the zone of inhibition at 25 µg/mL with Staphylococcus aureus [12], in the assay on Streptococcus pyogenes [13], in the assay with Escherichia coli [14] and in the assay on Pseudomonas aeruginosa [15] was 19 to 25 mm each time.
Take `Cc1cc(NS(=O)(=O)c2ccc(Cl)cc2)c2oc(COC(=O)NCc3ccccc3)cc2c1`: the zone of inhibition at 100 µg/mL in the assay on Staphylococcus aureus [7], in the assay on Streptococcus pyogenes [8], in the assay on Escherichia coli [9] and in the assay with Pseudomonas aeruginosa [10] was 11 to 28 mm each time.
In the case of `Nc1nn2c(-c3ccc(N4CCCCC4)cc3)cc(-c3cc4ccccc4o3)nc2c1/N=N/c1ccccc1`, the zone of inhibition at 50 µg/mL in the assay on Escherichia coli [16] and in the assay with Pseudomonas aeruginosa [17] was 9 to 18 mm in each case.
As to `Cc1ccc2c(-c3cc4cc(Br)ccc4oc3=O)coc2c1`, the MIC in the assay on Escherichia coli [4] and in the assay with Pseudomonas aeruginosa [5] was 6.25 to 100 µg/mL (≈ 17.6 to 282 µM) in each case.
Regarding `CCOc1ccc(-c2nn(-c3ccccc3)cc2/C=C/c2oc3c4c(ccc3c2C(=O)c2ccc(Br)cc2)OCC=C4)cc1`, the MIC against Bacillus spizizenii, against Staphylococcus aureus [1], against Escherichia coli [2] and in the assay with Proteus vulgaris [3] was 6.3 to 25 µg/mL (≈ 9.79 to 38.8 µM) throughout.
With `Cc1ccc2c(-c3cc4ccccc4oc3=O)coc2c1`, the MIC in the assay with Escherichia coli [4] and against Pseudomonas aeruginosa [5] was 6.25 to 100 µg/mL (≈ 22.6 to 362 µM) each time.
For the molecule `Cc1cc(NC(=O)c2ccccc2)c2oc(COC(=O)NCc3ccccc3)cc2c1`, the zone of inhibition at 100 µg/mL in the assay with Staphylococcus aureus [7], in the assay with Streptococcus pyogenes [8], in the assay on Escherichia coli [9] and in the assay with Pseudomonas aeruginosa [10] was 11 to 28 mm in each case.
With `O=C1Nc2ccc(F)cc2/C1=N/NC(=O)c1cc2cc([N+](=O)[O-])ccc2o1`, the IC50 in assay [6] was 50 to 200 µM.
Consider `Cc1cc(NS(=O)(=O)c2cccs2)c2oc(COC(=O)NCc3ccccc3)cc2c1`, for which the zone of inhibition at 100 µg/mL in the assay with Staphylococcus aureus [7], in the assay with Streptococcus pyogenes [8], with Escherichia coli [9] and in the assay with Pseudomonas aeruginosa [10] was 11 to 28 mm throughout.
On to `Cc1ccc(-c2csc3nc(-c4cc5cc(Br)ccc5o4)cn23)cc1`, for which the zone of inhibition at 1000 µg/mL in the assay with Staphylococcus aureus [18], in the assay on Klebsiella pneumoniae, in the assay with Pseudomonas aeruginosa [19] and with Escherichia coli [20] was 6 to 23 mm throughout.
With `CN[C@@H]1[C@H](O[C@H]2[C@H](O[C@H]3[C@H](O)[C@@H](O)[C@H](N=C(N)N)[C@@H](O)[C@@H]3N=C(N)N)O[C@@H](C)[C@]2(O)C=O)O[C@@H](CO)[C@H](O)[C@H]1O` [STREPTOMYCIN], the MIC was 6.25 µg/mL (≈ 10.7 µM) in assay [21], 17.2 to 19.4 µg/mL (≈ 29.7 to 33.3 µM) against Bacillus subtilis, 17.2 to 19.4 µg/mL (≈ 29.7 to 33.3 µM) in the assay with Escherichia coli [22] and 17.2 to 19.4 µg/mL (≈ 29.7 to 33.3 µM) against Pseudomonas aeruginosa [23].
On to `Cc1ccc2occ(-c3cc4cc(Br)ccc4oc3=O)c2c1`, for which the MIC against Escherichia coli [4] and with Pseudomonas aeruginosa [5] was 6.25 to 100 µg/mL (≈ 17.6 to 282 µM) in each case.
On to `Fc1ccc(-c2csc3nc(-c4cc5cc(Br)ccc5o4)cn23)cc1`, for which the zone of inhibition at 1000 µg/mL in the assay with Staphylococcus aureus [18], with Klebsiella pneumoniae, in the assay on Pseudomonas aeruginosa [19] and in the assay with Escherichia coli [20] was 6 to 23 mm in each case.
